According to patent publication US12208160B2, “Pharmaceutical compositions comprising coated API” (Catalent U.K. Swindon Zydis Limited, priority 2020, dated 2025):

Tests used:
[1] = Mid Volume Dissolution (MVD) 60-Minute Profile of freeze-dried finished product; type: physicochemical; details: within ~5 mins; note to FIG. 26
Experimental: This analytical method is used to determine the mid-volume dissolution of freeze-dried finished products. The method employs a Distek small volume conversion kit. The method employs the Pion Rainbow Dynamic Dissolution Monitor (RDDM) at 75 rpm, with pH 7.2 phosphate buffer as a dissolution medium. Analysis is by fibre optic UV detection using the Pion μDISS Profiler with a UV detection under the 2nd derivative function using a 2 mm pathlength. Pathlength, dissolution media and wavelength range will vary depending on the API properties. […] A five-point calibration Curve is set up on the Pion software. The amount of API reference standard weighed will be dependent on the API. The following is an example for Ibuprofen:
As per USP <711>—A small, loose piece of non-reactive material, such as not more than a few turns on wire helix, may be attached to the freeze-dried tablets that would otherwise float. Add one freeze-dried tablet to each of the six dissolution vessels. The six probes will measure the absorbance of the API in the vessels and determine the % drug dissolved based on the calibration curve.
An additional methodology Mid Volume Dissolution (MVD) based on the 60-minute profile for the coated API has been developed to be able to directly compare dissolution profiles of the coated API with the resulting finished product units. […]

[2] = Low volume dissolution of Acetaminophen raw material and coated Acetaminophen material; type: physicochemical; details: APAP
Experimental: This analytical method is used to determine the low volume dissolution of Acetaminophen raw material and coated Acetaminophen material. […] The following is the working standard 5-point calibration curve preparation for this Example. Calibration Point 1: Weigh accurately 50.0 mg of Acetaminophen reference standard into a 100 mL volumetric flask. Dissolve in approximately 80 mL of dissolution media and sonicate until fully dissolved. Dilute to volume with dissolution media mixing thoroughly. This is the calibration point 1 working standard solution (concentration: approximately 0.5 mg/mL). Calibration Point 2: Weigh accurately 100.0 mg of Acetaminophen reference standard into a 100 mL volumetric flask. Dissolve in approximately 80 mL of dissolution media and sonicate until fully dissolved. Dilute to volume with dissolution media mixing thoroughly. This is the calibration point 2 working standard solution (concentration: approximately 1.0 mg/mL). Calibration Point 3: Weigh accurately 200.0 mg of Acetaminophen reference standard into a 100 mL volumetric flask. Dissolve in approximately 80 mL of dissolution media and sonicate until fully dissolved. Dilute to volume with dissolution media mixing thoroughly. This is the calibration point 3 working standard solution (concentration: approximately 2.0 mg/mL). Calibration Point 4: Weigh accurately 500.0 mg of Acetaminophen reference standard into a 100 mL volumetric flask. Dissolve in approximately 80 mL of dissolution media and sonicate until fully dissolved. Dilute to volume with dissolution media mixing thoroughly. This is the calibration point 4 working standard solution (concentration: approximately 5.0 mg/mL). Calibration Point 5: Weigh accurately 550.0 mg of Acetaminophen reference standard into a 100 mL volumetric flask. Dissolve in approximately 80 mL of dissolution media and sonicate until fully dissolved (this standard solution may require slight heating to dissolve all Acetaminophen). If required, allow the solution to equilibrate to room temperature, dilute to volume with dissolution media and mix thoroughly. This is the calibration point 5 working standard solution (concentration: approximately 5.5 mg/mL). Acetaminophen raw material: Six samples are analyzed. […] The individual software potencies for each vessel will be input into the DissoPRO software at the start of experiment. Six samples are analyzed. For each sample, weigh accurately 125 mg of coated Acetaminophen material into a Pion low volume dissolution vessel. The individual software potencies for each vessel will be input into the DissoPRO software at the start of experiment. […] The Coated APAP has undergone coating at bench scale operation using the Resonance Acoustic Mixing manufacturing process. […] The slow release profile is indicative of achieving a successful coating and preventing the API from readily dissolving and therefore a taste masked API.

Row | SMILES | full release [1] [%] | % Acetaminophen dissolved ([2]; 0.0 minutes) [%] | % Acetaminophen dissolved ([2]; 5 minutes) [%] | % Acetaminophen dissolved ([2]; 10 minutes) [%] | % Acetaminophen dissolved ([2]; 15 minutes) [%] | % Acetaminophen dissolved ([2]; 20 minutes) [%] | % Acetaminophen dissolved ([2]; 25 minutes) [%] | % Acetaminophen dissolved ([2]; 30 minutes) [%] | equilibrium point (% dissolved) ([2]; within the first two minutes)
1 | CC(C)Cc1ccc(C(C)C(=O)O)cc1 (stereo not drawn) [Raw Material, Ibuprofen] | ~80 |  |  |  |  |  |  |  | 
2 | CC(=O)Nc1ccc(O)cc1 [Raw Material - AN190319, Acetaminophen] |  | 0 | 127 | 128 | 128 | 128 | 128 | 128 | over 100%
